Assay results published in patent US20150352232A1, “MR IMAGING DIAGNOSTIC AGENT FOR INTRACTABLE NEUROLOGICAL DISEASE” (SHIGA UNIVERSITY OF MEDICAL SCIENCE, priority 2013, published 2015).
Entries after “also recorded” stand apart in the source; their conditions may differ.

Experiments:
[1] = molecular target: T1, senile plaques (Homo sapiens, UniProt P05067); assay: 19F-MR image measurement of the brain after tail vein injection (Test Example 1); format: in vivo, mouse; details: 200 mg/kg tail vein, three-hour measurement beginning five hours after injection, 7T
T1 construct: Spots of amyloid β, which forms senile plaques; tissue Jackson Laboratory; host or cells: brain of live APP/PS1 double transgenic mice
T1 sequence (P05067 672-713 limits assumed): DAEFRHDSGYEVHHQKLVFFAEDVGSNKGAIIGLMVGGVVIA
Protocol: Compound 1 was weighed out in an amount of 10 mg, and 0.125 ml of 80% Tween-80 was added thereto, followed by dissolution using a glass rod under heating. Subsequently, 0.875 ml of physiological saline was added thereto to prepare a solution for injection (10 mg/ml). The solution was injected in a total amount of 200 mg/kg at […] to the tail vein of each of the genetically modified model mice of Alzheimer's disease (APP/PS1) and the normal wild mice (Wild), which had been subjected to pentobarbital sodium anesthesia. As the genetically modified model mice of Alzheimer's disease (APP/PS1), amyloid precursor protein and presenilin 1 double transgenic mice (APP/PS1, purchased from Jackson Laboratory and bred) were used. After the completion of the injection, under anesthesia, the head of each mouse was continuously evaluated every hour using an MRI apparatus, and all data were added to form images. The brain image of ^19F-MRI was obtained according to the chemical shift imaging method (CSI method). As the MRI apparatus, a 7T Unity Inova MR Scanner (produced by Varian Medical System) was used. Each of the genetically modified model mice of Alzheimer's disease (APP/PS1) and normal wild mice (Wild) were injected with Compound 1. […] FIGS. 1A and 1C are ^19F-MRI images, and FIGS. 1B and 1D are composite photos of ^19F-MRI and ^1H-MRI images.

[2] = molecular target: Aβ oligomers (Homo sapiens, UniProt P05067); assay: Analysis of binding property using QCM apparatus, sensor with Aβ oligomers fixed (Test Example 3); details: final concentration 10 μM in PBS
Sequence of Aβ oligomers (P05067 672-713 limits assumed): as above
Protocol: (§1) Aβ oligomers or Aβ fibrils were fixed to the sensor portion of the QCM apparatus, and immersed in PBS in a glass container. Subsequently, Compound 8 or Compound 1 was added thereto to a final concentration of 10 μM, and a frequency change was recorded from immediately after the addition.

[3] = molecular target: T2, Aβ fibrils (Homo sapiens, UniProt P05067); assay: Analysis of binding property using QCM apparatus, sensor with Aβ fibrils fixed (Test Example 3); details: final concentration 10 μM in PBS
T2 construct: Aβ oligomers or Aβ fibrils were fixed to the sensor portion of the QCM apparatus
T2 sequence (P05067 672-713 limits assumed): as above
Protocol: as §1

Compound	19F-MR signals presumed to be senile plaques inside of the brain ([1]; genetically modified model mice of Alzheimer's disease (APP/PS1))	19F-MR signals presumed to be senile plaques inside of the brain ([1]; normal wild mouse (Wild))	binding to Aβ oligomers (conclusion from QCM) [2]	binding to Aβ fibrils (conclusion from QCM) [3]	QCM frequency change, sensor with Aβ fibrils fixed (Fibrillar) compared to Control [3]
CN(C)c1ccc(/C=C/c2nc3ccc(OCCOCCOCCOCCOCCOCCOCCOCC(F)(F)F)cc3o2)cc1 [Compound 1, 6-(3′,6′,9′,12′,15′,18′,21′-heptaoxa-23′,23′,23′-trifluorotricosanyloxy)-2-(4′-dimethylaminostyryl)benzoxazole]	signals presumed to be senile plaques were detected inside of the brain	such signals were not detected	does not bind to Aβ oligomers	binds to Aβ fibrils	
COC(=O)CCC(C(=O)/C=C/c1ccc(O)c(OC(F)(F)F)c1)C(=O)/C=C/c1ccc(O)c(OC(F)(F)F)c1 [Compound 8]			binding to both Aβ oligomers and Aβ fibrils	binding to both Aβ oligomers and Aβ fibrils	significant frequency reduction; also recorded: frequency reduction was observed
